Where a name gives a salt, the structure may show the parent alone.
Tests used:
human JAK1 = molecular target: T1, human JAK1 (Homo sapiens, UniProt P23458); test: In Vitro JAK Kinase Assay (HTRF, phosphorylation of a biotinylated peptide), JAK1; assay type: biochemical; conditions: catalytic domain a.a. 837-1142, assay of Example A
T1 construct: human JAK1 (a.a. 837-1142); His tag (N); made in house; host or cells: insect cells (baculovirus)
Procedure, shortened: (§1)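 HTRF detection (SA-APC plus Eu-labeled anti-phosphotyrosine Py20, 40 min after EDTA stop) quantified biotinylated-peptide phosphorylation. Kinase reactions with human JAK1 or JAK2 catalytic domains lasted 1 h at room temperature.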

human JAK2 = molecular target: T2, human JAK2 (Homo sapiens, UniProt O60674); test: In Vitro JAK Kinase Assay (HTRF, phosphorylation of a biotinylated peptide), JAK2; assay type: biochemical; conditions: assay of Example A
T2 construct: JAK2 (a.a. 828-1132); His tag (N); made in house; host or cells: insect cells (baculovirus)
Procedure, shortened: as §1

T2 sequence (O60674 828-1132): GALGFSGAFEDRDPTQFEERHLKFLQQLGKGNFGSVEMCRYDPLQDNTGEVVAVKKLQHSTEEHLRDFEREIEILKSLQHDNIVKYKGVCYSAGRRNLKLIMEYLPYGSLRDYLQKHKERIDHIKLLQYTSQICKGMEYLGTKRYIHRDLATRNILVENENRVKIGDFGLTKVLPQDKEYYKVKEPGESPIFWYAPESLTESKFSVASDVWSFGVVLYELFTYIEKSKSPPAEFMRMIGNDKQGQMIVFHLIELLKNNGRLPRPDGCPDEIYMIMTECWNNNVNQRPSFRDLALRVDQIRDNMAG
T1 sequence (P23458 849-1154): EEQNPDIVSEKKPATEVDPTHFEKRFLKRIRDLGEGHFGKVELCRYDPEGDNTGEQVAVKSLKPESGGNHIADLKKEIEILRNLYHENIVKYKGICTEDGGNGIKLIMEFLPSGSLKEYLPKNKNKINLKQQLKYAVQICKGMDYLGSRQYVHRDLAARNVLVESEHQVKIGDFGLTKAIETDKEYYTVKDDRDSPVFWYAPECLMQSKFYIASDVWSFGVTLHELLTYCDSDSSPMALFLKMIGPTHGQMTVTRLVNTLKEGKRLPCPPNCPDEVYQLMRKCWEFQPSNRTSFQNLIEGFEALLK

`N#CCC1(n2cc(-c3ncnc4[nH]ccc34)cn2)CN([C@H]2CC[C@@H](Oc3cc(CCO)nc(C(F)(F)F)n3)CC2)C1` [Example 45, {1-(cis-4-{[6-(2-hydroxyethyl)-2-(trifluoromethyl)pyrimidin-4-yl]oxy}cyclohexyl)-3-[4-(7H-pyrrolo[2,3-d]pyrimidin-4-yl)-1H-pyrazol-1-yl]azetidin-3-yl}acetonitrile tris(trifluoroacetate)] was tested, and the IC50 (human JAK1; Table 4) was < 10 nM and the “JAK2/JAK1 IC50 ratio” value (human JAK2; Table 4) was “≧10”.

For `N#CCC1(n2cc(-c3ncnc4[nH]ccc34)cn2)CN([C@H]2CC[C@@H](Oc3cc(Cn4cccn4)cc(C(F)(F)F)n3)CC2)C1` [Example 100, {1-(cis-4-{[4-(1H-pyrazol-1-ylmethyl)-6-(trifluoromethyl)pyridin-2-yl]oxy}cyclohexyl)-3-[4-(7H-pyrrolo[2,3-d]pyrimidin-4-yl)-1H-pyrazol-1-yl]azetidin-3-yl}acetonitrile tris(trifluoroacetate)], the IC50 (human JAK1; Table 5) was < 10 nM and the “JAK2/JAK1 IC50 ratio” value (human JAK2; Table 5) was “≧10”.

With `N#CCC1(n2cc(-c3ncnc4[nH]ccc34)cn2)CN([C@H]2CC[C@@H](Oc3cc(CN4CCC[C@H]4CO)nc(C(F)(F)F)n3)CC2)C1` [Example 28, {1-(cis-4-{[6-{[(2R)-2-(hydroxymethyl)pyrrolidin-1-yl]methyl}-2-(trifluoromethyl)pyrimidin-4-yl]oxy}cyclohexyl)-3-[4-(7H-pyrrolo[2,3-d]pyrimidin-4-yl)-1H-pyrazol-1-yl]azetidin-3-yl}acetonitrile tris(trifluoroacetate) (salt)] the IC50 (human JAK1; Table 4) was < 10 nM and the “JAK2/JAK1 IC50 ratio” value (human JAK2; Table 4) was “≧10”.

`CC(C)(C)NCc1cc(O[C@H]2CC[C@@H](N3CC(CC#N)(n4cc(-c5ncnc6[nH]ccc56)cn4)C3)CC2)nc(C(F)(F)F)n1` [Example 44, {1-(cis-4-{[6-[(tert-Butylamino)methyl]-2-(trifluoromethyl)pyrimidin-4-yl]oxy}cyclohexyl)-3-[4-(7H-pyrrolo[2,3-d]pyrimidin-4-yl)-1H-pyrazol-1-yl]azetidin-3-yl}acetonitrile tetrakis(trifluoroacetate)] was tested, and the IC50 (human JAK1; Table 4) was < 10 nM and the “JAK2/JAK1 IC50 ratio” value (human JAK2; Table 4) was “≧10”.

`N#CCC1(n2cc(-c3ncnc4[nH]ccc34)cn2)CN([C@H]2CC[C@@H](Oc3cc(CN)cc(C(F)(F)F)n3)CC2)C1` [Example 66, {1-(cis-4-{[4-(aminomethyl)-6-(trifluoromethyl)pyridin-2-yl]oxy}cyclohexyl)-3-[4-(7H-pyrrolo[2,3-d]pyrimidin-4-yl)-1H-pyrazol-1-yl]azetidin-3-yl}acetonitrile tris(trifluoroacetate)] was tested, and the IC50 (human JAK1; Table 5) was < 10 nM and the “JAK2/JAK1 IC50 ratio” value (human JAK2; Table 5) was “≧10”.

For `CC(O)(CO)c1cc(OC2CCC(N3CC(CC#N)(n4cc(-c5ncnc6[nH]ccc56)cn4)C3)CC2)nc(C(F)(F)F)n1` (single isomer, unassigned) [Example 57, {1-(cis-4-{[6-(1,2-dihydroxy-1-methylethyl)-2-(trifluoromethyl)pyrimidin-4-yl]oxy}cyclohexyl)-3-[4-(7H-pyrrolo[2,3-d]pyrimidin-4-yl)-1H-pyrazol-1-yl]azetidin-3-yl}acetonitrile tris(trifluoroacetate) (salt)], the IC50 (human JAK1; Table 4) was < 10 nM and the “JAK2/JAK1 IC50 ratio” value (human JAK2; Table 4) was “≧10”.

In the case of `N#CCC1(n2cc(-c3ncnc4[nH]ccc34)cn2)CN([C@H]2CC[C@@H](Oc3cc(CN4CCC[C@@H]4CO)nc(C(F)(F)F)n3)CC2)C1` [Example 29, {1-(cis-4-{[6-{[(2S)-2-(hydroxymethyl)pyrrolidin-1-yl]methyl}-2-(trifluoromethyl)pyrimidin-4-yl]oxy}cyclohexyl)-3-[4-(7H-pyrrolo[2,3-d]pyrimidin-4-yl)-1H-pyrazol-1-yl]azetidin-3-yl}acetonitrile tris(trifluoroacetate) (salt)], the IC50 (human JAK1; Table 4) is reported as < 10 nM and the “JAK2/JAK1 IC50 ratio” value (human JAK2; Table 4) is reported as “≧10”.

`CN(C)C(=O)c1cc(O[C@H]2CC[C@@H](N3CC(CC#N)(n4cc(-c5ncnc6[nH]ccc56)cn4)C3)CC2)nc(C(F)(F)F)n1` [Example 46, 6-[(cis-4-{3-(cyanomethyl)-3-[4-(7H-pyrrolo[2,3-d]pyrimidin-4-yl)-1H-pyrazol-1-yl]azetidin-1-yl}cyclohexyl)oxy]-N,N-dimethyl-2-(trifluoromethyl)pyrimidine-4-carboxamide bis(trifluoroacetate)] was tested, and the IC50 (human JAK1; Table 4) was < 10 nM and the “JAK2/JAK1 IC50 ratio” value (human JAK2; Table 4) was “≧10”.

In the case of `N#CCC1(n2cc(-c3ncnc4[nH]ccc34)cn2)CN([C@H]2CC[C@@H](Oc3cc(CCF)nc(C(F)(F)F)n3)CC2)C1` [Example 60, {1-(cis-4-{[6-(2-fluoro ethyl)-2-(trifluoromethyl)pyrimidin-4-yl]oxy}cyclohexyl)-3-[4-(7H-pyrrolo[2,3-d]pyrimidin-4-yl)-1H-pyrazol-1-yl]azetidin-3-yl}acetonitrile tris(trifluoroacetate)], the IC50 (human JAK1; Table 4) is reported as < 10 nM and the “JAK2/JAK1 IC50 ratio” value (human JAK2; Table 4) is reported as “≧10”.

`CCNCc1cc(O[C@H]2CC[C@@H](N3CC(CC#N)(n4cc(-c5ncnc6[nH]ccc56)cn4)C3)CC2)nc(C(F)(F)F)n1` [Example 5, {1-(cis-4-{[6-[(Ethylamino)methyl]-2-(trifluoromethyl)pyrimidin-4-yl]oxy}cyclohexyl)-3-[4-(7H-pyrrolo[2,3-d]pyrimidin-4-yl)-1H-pyrazol-1-yl]azetidin-3-yl}acetonitrile tris(trifluoroacetate)] was tested, and the IC50 (human JAK1; Table 4) was < 10 nM and the “JAK2/JAK1 IC50 ratio” value (human JAK2; Table 4) was “≧10”.

In the case of `C[C@@H](O)CNCc1cc(O[C@H]2CC[C@@H](N3CC(CC#N)(n4cc(-c5ncnc6[nH]ccc56)cn4)C3)CC2)nc(C(F)(F)F)n1` [Example 18, {1-(cis-4-{[6-({[(2S)-2-hydroxypropyl]amino}methyl)-2-(trifluoromethyl)pyrimidin-4-yl]oxy}cyclohexyl)-3-[4-(7H-pyrrolo[2,3-d]pyrimidin-4-yl)-1H-pyrazol-1-yl]azetidin-3-yl}acetonitrile tris(trifluoroacetate) (salt)], the IC50 (human JAK1; Table 4) is reported as < 10 nM and the “JAK2/JAK1 IC50 ratio” value (human JAK2; Table 4) is reported as “≧10”.

With `CCCCNCc1cc(O[C@H]2CC[C@@H](N3CC(CC#N)(n4cc(-c5ncnc6[nH]ccc56)cn4)C3)CC2)nc(C(F)(F)F)n1.O=C(O)C(F)(F)F.O=C(O)C(F)(F)F.O=C(O)C(F)(F)F` [Example 34, {1-(cis-4-{[6-[(butylamino)methyl]-2-(trifluoromethyl)pyrimidin-4-yl]oxy}cyclohexyl)-3-[4-(7H-pyrrolo[2,3-d]pyrimidin-4-yl)-1H-pyrazol-1-yl]azetidin-3-yl}acetonitrile tris(trifluoroacetate)] the IC50 (human JAK1; Table 4) was < 10 nM and the “JAK2/JAK1 IC50 ratio” value (human JAK2; Table 4) was “≧10”.

With `N#CCC1(n2cc(-c3ncnc4[nH]ccc34)cn2)CN([C@H]2CC[C@@H](Oc3cc(CNCCO)nc(C(F)(F)F)n3)CC2)C1` [Example 11, {1-(cis-4-{[6-{[(2-hydroxyethyl)amino]methyl}-2-(trifluoromethyl)pyrimidin-4-yl]oxy}cyclohexyl)-3-[4-(7H-pyrrolo[2,3-d]pyrimidin-4-yl)-1H-pyrazol-1-yl]azetidin-3-yl}acetonitrile tris(trifluoroacetate) (salt)] the IC50 (human JAK1; Table 4) was < 10 nM and the “JAK2/JAK1 IC50 ratio” value (human JAK2; Table 4) was “≧10”.

With `CNCc1cc(O[C@H]2CC[C@@H](N3CC(CC#N)(n4cc(-c5ncnc6[nH]ccc56)cn4)C3)CC2)nc(C(F)(F)F)c1` [Example 67, {1-(cis-4-{[4-[(methylamino)methyl]-6-(trifluoromethyl)pyridin-2-yl]oxy}cyclohexyl)-3-[4-(7H-pyrrolo[2,3-d]pyrimidin-4-yl)-1H-pyrazol-1-yl]azetidin-3-yl}acetonitrile tris(trifluoroacetate)] the IC50 (human JAK1; Table 5) was < 10 nM and the “JAK2/JAK1 IC50 ratio” value (human JAK2; Table 5) was “≧10”.

For `N#CCC1(n2cc(-c3ncnc4[nH]ccc34)cn2)CN([C@H]2CC[C@@H](Oc3cc(CN4CC[C@@H](O)C4)cc(C(F)(F)F)n3)CC2)C1` [Example 95, {1-(cis-4-{[4-{[(3R)-3-hydroxypyrrolidin-1-yl]methyl}-6-(trifluoromethyl)pyridin-2-yl]oxy}cyclohexyl)-3-[4-(7H-pyrrolo[2,3-d]pyrimidin-4-yl)-1H-pyrazol-1-yl]azetidin-3-yl}acetonitrile pentakis(trifluoroacetate)], the IC50 (human JAK1; Table 5) was < 10 nM and the “JAK2/JAK1 IC50 ratio” value (human JAK2; Table 5) was “≧10”.

For `CC(O)(CO)c1cc(OC2CCC(N3CC(CC#N)(n4cc(-c5ncnc6[nH]ccc56)cn4)C3)CC2)nc(C(F)(F)F)n1` (single isomer, unassigned) [Example 57a, {1-(cis-4-{[6-(1,2-dihydroxy-1-methylethyl)-2-(trifluoromethyl)pyrimidin-4-yl]oxy}cyclohexyl)-3-[4-(7H-pyrrolo[2,3-d]pyrimidin-4-yl)-1H-pyrazol-1-yl]azetidin-3-yl}acetonitrile tris(trifluoroacetate) (salt)], the IC50 (human JAK1; Table 4) was < 10 nM and the “JAK2/JAK1 IC50 ratio” value (human JAK2; Table 4) was “≧10”.

For `C[C@@H](CO)NC(=O)c1cc(O[C@H]2CC[C@@H](N3CC(CC#N)(n4cc(-c5ncnc6[nH]ccc56)cn4)C3)CC2)nc(C(F)(F)F)c1` [Example 84, 2-[(cis-4-{3-(cyanomethyl)-3-[4-(7H-pyrrolo[2,3-d]pyrimidin-4-yl)-1H-pyrazol-1-yl]azetidin-1-yl}cyclohexyl)oxy]-N-[(1S)-2-hydroxy-1-methylethyl]-6-(trifluoromethyl)isonicotinamide bis(trifluoroacetate)], the IC50 (human JAK1; Table 5) was < 10 nM and the “JAK2/JAK1 IC50 ratio” value (human JAK2; Table 5) was “≧10”.

`CC(CO)c1cc(OC2CCC(N3CC(CC#N)(n4cc(-c5ncnc6[nH]ccc56)cn4)C3)CC2)nc(C(F)(F)F)n1` (single isomer, unassigned) [Example 59a, {1-(cis-4-{[6-(2-hydroxy-1-methylethyl)-2-(trifluoromethyl)pyrimidin-4-yl]oxy}cyclohexyl)-3-[4-(7H-pyrrolo[2,3-d]pyrimidin-4-yl)-1H-pyrazol-1-yl]azetidin-3-yl}acetonitrile bis(trifluoroacetate) (salt)] was tested, and the IC50 (human JAK1; Table 4) was < 10 nM and the “JAK2/JAK1 IC50 ratio” value (human JAK2; Table 4) was “≧10”.

Reference: US9359358B2, “Cyclohexyl azetidine derivatives as JAK inhibitors” (Incyte Holdings Corporation, priority 2011, dated 2016)
